The values that follow come from patent US20260335347A1, “COMBINATION THERAPY WITH SPARSENTAN AND A SGLT2 INHIBITOR FOR TREATING KIDNEY DISEASES OR DISORDERS” (Travere Therapeutics, Inc., priority 2022, published 2026).

Molecules are shown by their SMILES. Where two headings read alike, the source gives them in different places.

Series [1] in a line: Open-label drug-drug interaction study in healthy adults: safety and tolerability (TEAEs). The format is in vivo, human. Conditions: 10 mg DAPA, 800 mg SPAR once daily. As for the experimental part: (§1) Potential drug-drug interactions (DDI) of sparsentan with SGLT2 inhibitors are not known. The safety of administering sparsentan and dapagliflozin was evaluated in an open-label, drug-drug interaction study in healthy […]. This phase 1 study examined the effect of multiple doses of sparsentan on the pharmacokinetics (PK) of single-dose dapagliflozin and assessed the safety and tolerability of single-dose dapagliflozin when co-administered after multiple doses of sparsentan in healthy adults.
(§2) The open-label DDI study included Period 1 (Days 1-5; single dose of 10 mg dapagliflozin (“DAPA”) on Day 1, PK sampling pre-dose and up to 96 hours post-dose) and Period 2 (Days 5-14; 800 mg sparsentan (“SPAR”) once daily for 10 days with single 10 mg dose DAPA co-administered on Day 11, DAPA PK sampling pre-dose and up to 96 hours after Day 11 dosing). To avoid hypoglycemic events, subjects received an oral 20% glucose solution in water with the DAPA dose and every ~15 minutes up to 4 hours post-dose. Plasma concentrations and PK parameters of DAPA and SPAR were summarized. Subjects with evaluable data for both periods were included in an ANOVA mixed model analysis of DAPA AUC0-t, AUC0-inf, and Cmax following DAPA+SPAR vs DAPA alone. Treatment-emergent adverse events (TEAEs) were summarized.

Series [2] is described as follows: Open-label drug-drug interaction study in healthy adults: plasma dapagliflozin PK. The format is in vivo, human. As to conditions: for AUC(0-inf) / AUC(0-t) / Cmax: human, plasma, 10 mg; for AUC(0-inf): n = 16; for AUC(0-t) / Cmax: n = 20. On the procedure:
as §1, §2

For series [3], the system named is patients with FSGS. Put plainly: DUPLEX trial: proportion of patients achieving UP/C ≤1.5 g/g and >40% reduction in UP/C (FPRE). The format is in vivo, human. As to conditions: p=0.0094; for patients achieving FPRE (UP/C ≤1.5 g/g and >40 percent reduction in UP/C from Baseline): after 36 weeks of treatment, first approximately 190 patients. On the procedure:
(§3) The efficacy and safety of sparsentan were evaluated in DUPLEX, a randomized, double-blind, active-controlled, multicenter, global trial in patients with FSGS after exclusion of known secondary causes.
The trial enrolled patients with eGFR≥30 mL/min/1.73 m^2 and urinary protein to creatinine ratio (UP/C)>1.5 g/g. Randomization was stratified based on eGFR (≥30 to <60 mL/min/1.73 m^2 versus eGFR≥60 mL/min/1.73 m^2) and UP/C values (≤3.5 g/g versus >3.5 g/g for patients≥18 years of age, or ≤2 g/g versus >2 g/g for patients<18 years of age).
(§4) All patients were randomized at a 1:1 ratio to receive sparsentan or the active control, irbesartan. Sparsentan was administered at a dose of 400 mg once daily by mouth for 2 weeks and then titrated to 800 mg once daily as tolerated. Irbesartan was administered at a dose of 150 mg once daily by mouth for 2 weeks and then titrated to 300 mg once daily as tolerated. In patients weighing 50 kg or less, dosing was halved in both treatment arms (e.g., sparsentan administered at a dose of 200 mg once daily by mouth for 2 weeks and then titrated to 400 mg once daily as tolerated).
The proportion of patients achieving a UP/C≤1.5 g/g and a >40% reduction from baseline in UP/C was evaluated after patients completed 36 weeks of treatment.
In the DUPLEX Study, a total of 371 patients were randomized 1:1 to receive either sparsentan or irbesartan, the active control. The study protocol provided for an unblinded analysis to evaluate the interim efficacy endpoint—the proportion of patients achieving FPRE, which is a clinically meaningful endpoint defined as urine protein-to-creatinine ratio (UP/C)≤1.5 g/g and a >40 percent reduction in UP/C from Baseline, at Week 36—following the first approximately 190 patients reaching 36 weeks of treatment. After 36 weeks of treatment, 42.0 percent of patients receiving sparsentan achieved FPRE, compared to 26.0 percent of irbesartan-treated patients (p=0.0094).

For series [4], the system named is patients with IgAN. Briefly: PROTECT Phase 3 trial: change in proteinuria (UP/C) and eGFR, sparsentan vs irbesartan. Format: in vivo, human. As to conditions: for mean reduction in proteinuria (UP/C) from baseline: after 36 weeks of treatment, first 280 patients, sparsentan 200 mg titrated to 400 mg once daily or irbesartan 150 mg titrated to 300 mg once daily, oral, p<0.0001. On the procedure:
(§5) The long-term nephroprotective potential of treatment with sparsentan was evaluated in PROTECT, a 114-week, randomized, global, multicenter, double-blind, parallel-group, active-control Phase 3 clinical study in patients with IgAN who have persistent overt proteinuria and remain at high risk of disease progression despite being on a stable dose (or doses) of an angiotensin-converting enzyme inhibitor (ACEI) and/or angiotensin receptor blocker (ARB) that is (are) a maximum tolerated dose that is at least one half of the maximum labeled dose (MLD) (according to approved labeling). The purpose of the study is to evaluate the potential benefit of sparsentan on kidney function by analyzing change in proteinuria (protein in urine) and estimated glomerular filtration rate (eGFR) as compared to current standard treatment.
404 patients aged≥18 years were enrolled in the study globally.
Enrolled patients were at high risk of progressing to renal failure. The trial enrolled patients with eGFR≥30 mL/min/1.73 m^2 and urinary protein to creatinine ratio (UP/C)≥1.0 g/g at screening.
Inclusion criteria included: age 18 years or older at screening; biopsy-proven primary IgAN; proteinuria (UP/C) of ≥1 g/day at screening; eGFR≥30 mL/min/1.73 m^2 at screening; currently on stable dose of ACEI and/or ARB therapy, for at least 12 weeks prior to screening (maximum tolerated dose and at least one-half of the maximum labeled dose); systolic BP≤150 mmHg and diastolic BP≤100 mmHg at screening; willing to undergo change in ACEI and/or ARB and anti-hypertensive medications; and agree to contraception.
(§6) All patients were randomized at a 1:1 ratio to receive sparsentan or the active control, irbesartan (an angiotensin receptor blocker), as a single oral morning dose. Sparsentan was administered at a dose of 200 mg once daily by mouth for 2 weeks and then titrated to 400 mg once daily as tolerated. Irbesartan was administered at a dose of 150 mg once daily by mouth for 2 weeks and then titrated to 300 mg once daily as tolerated.
Change in proteinuria (UP/C) from baseline (Day 1) at Week 36 in sparsentan-treated patients as compared to irbesartan-treated patients was assessed. The Week 36 UP/C was based on a 24-hour urine sample. Secondary outcome measures included eGFR over a 52-week period and a 104-week period following the initial acute effect of randomized therapy. […] Also assessed was eGFR over a 58-week and a 110-week (approximately 2-year) period following the initiation of randomized therapy (the analysis is from Day 1 to 58 weeks postrandomization or from Day 1 to 110 weeks postrandomization, eGFR total slope at 2 years). […]

Series [5] deals with patients with FSGS. Briefly: DUPLEX trial: interim safety. The format is in vivo, human. As for the experimental part:
as §3, §4

The subject of series [6] is endothelin (A type) receptors ("ETA" receptors). Conditions: selective dual-acting receptor antagonist; cited from earlier work.
In series [7] the test system is angiotensin II receptors (Type 1) ("AT1" receptors). As to conditions: selective dual-acting receptor antagonist; cited from earlier work.
Series [8] has as its system patients with FSGS. Conditions: Phase 2 clinical study; cited from earlier work.
The test system of series [9] is patients with IgAN. Briefly: PROTECT Phase 3 trial: safety, interim analysis. Conditions: 400 mg once daily. Format: in vivo, human. As for the experimental part: as §5, §6
The study provided for an analysis of topline results at 36 weeks, following the first 280 patients reaching 36 weeks of treatment.

Regarding `CCOc1ccc(Cc2cc([C@@H]3O[C@H](CO)[C@@H](O)[C@H](O)[C@H]3O)ccc2Cl)cc1` [DAPA, dapagliflozin], the “tolerability of single-dose DAPA co-administered with multiple doses of SPAR” value in series [1] is listed as “appeared to be well tolerated”. The “mean peak and extent of DAPA exposure (Cmax and AUC)” value in series [2] (10 mg DAPA alone vs 10 mg DAPA+800 mg SPAR) is reported as “similar”. Further, the AUC(0-inf) is 534 ng·h/mL in [2] (single 10 mg DAPA alone, Day 1, read-out: AUC0-inf, geometric LSMs (DAPA alone)) and 565 ng·h/mL in series [2] (single 10 mg DAPA co-administered on Day 11 with 800 mg SPAR once daily for 10 days, read-out: AUC0-inf, geometric LSMs (DAPA + SPAR)). Further, the AUC(0-t) was determined as 509 ng·h/mL in [2] (single 10 mg DAPA alone, Day 1, read-out: AUC0-t, geometric LSMs (DAPA alone)) and 526 ng·h/mL in series [2] (single 10 mg DAPA co-administered on Day 11 with 800 mg SPAR once daily for 10 days, read-out: AUC0-t, geometric LSMs (DAPA + SPAR)). Besides, the maximum concentration (Cmax) in series [2] (single 10 mg DAPA alone, Day 1, read-out: Cmax, geometric LSMs (DAPA alone)) was 73.9 ng/mL; in series [2] (single 10 mg DAPA co-administered on Day 11 with 800 mg SPAR once daily for 10 days, read-out: Cmax, geometric LSMs (DAPA + SPAR)), 79.9 ng/mL. For the same molecule, the “Cmax, GLSMR (DAPA + SPAR vs DAPA alone)” value in series [2] (plasma dapagliflozin, 90% CI 96.0-121.8, intra-subject CV% 22.0) turned out to be 108.2%. Moreover, the “AUC0-t, GLSMR (DAPA + SPAR vs DAPA alone)” value in [2] (plasma dapagliflozin, 90% CI 99.9-107.0, intra-subject CV% 6.3) was 103.4%. The “AUC0-inf, GLSMR (DAPA + SPAR vs DAPA alone)” value in series [2] (plasma dapagliflozin, 90% CI 103.1-108.9, intra-subject CV% 4.4) was determined as 105.9%.
On to `CCCCC1=NC2(CCCC2)C(=O)N1Cc1ccc(-c2ccccc2-c2nnn[nH]2)cc1` [irbesartan], for which the “patients achieving FPRE (UP/C ≤1.5 g/g and >40 percent reduction in UP/C from Baseline)” value in the series on patients with FSGS [3] is given as 26.0%. In addition, the “mean reduction in proteinuria (UP/C) from baseline” value in the series on patients with IgAN [4] is 15.1%.
As for `CCCCC1=NC2(CCCC2)C(=O)N1Cc1ccc(-c2ccccc2S(=O)(=O)Nc2noc(C)c2C)c(COCC)c1` [sparsentan, 2-[4-[(2-butyl-4-oxo-1,3-diazaspiro[4.4]non-1-en-3-yl)methyl]-2-(ethoxymethyl)phenyl]-N-(4,5-dimethyl-1,2-oxazol-3-yl)benzenesulfonamide], in the series with patients with FSGS [5] (FSGS), the “tolerability (preliminary review of interim safety results)” value is given as “generally well-tolerated”. Moreover, in the series on patients with FSGS [5] (sparsentan vs active control treatment group), the “overall safety profiles between treatment groups” value is listed as “generally comparable between treatment groups”. Moreover, in series [6], the “affinity for endothelin (A type) receptors” value was “selective dual-acting receptor antagonist with affinity for endothelin (A type) receptors”. The “proportion achieving composite endpoint, sparsentan arm vs irbesartan arm” value in the series on patients with FSGS [3] (Week 36, vs irbesartan) is listed as “significantly higher”. The “patients achieving FPRE (UP/C ≤1.5 g/g and >40 percent reduction in UP/C from Baseline)” value in the series with patients with FSGS [3] was determined as 42.0%. Moreover, in series [7], the “affinity for angiotensin II receptors (Type 1)” value was “selective dual-acting receptor antagonist”. The “reduction in proteinuria compared to the irbesartan-treated group” value in the series with patients with IgAN [4] (36 weeks, sparsentan-treated vs irbesartan-treated group) is listed as “greater than threefold reduction in proteinuria”. For the same molecule, the “mean reduction in proteinuria (UP/C) from baseline” value in the series on patients with IgAN [4] is 49.8%. In addition, the “preliminary eGFR data at interim analysis” value in the series on patients with IgAN [4] (interim analysis, after two years of treatment) is “indicative of a potential clinically meaningful treatment effect”. The “effect of multiple dosing of SPAR on single-dose DAPA PK” value in [2] (healthy adults, 800 mg SPAR once daily for 10 days) is “did not affect single-dose DAPA PK”. Moreover, the “reduction of proteinuria in patients with FSGS” value in the series with patients with FSGS [8] is “shown to reduce proteinuria”. The “tolerability (preliminary interim results)” value with patients with IgAN [9] is “generally well-tolerated”.
